# Laboratory results: ChEMBL document CHEMBL1649179, “Pharmacokinetics of LB80331 and LB80317 following oral administration of LB80380, a new antiviral agent for chronic hepatitis B (CHB), in healthy adult subjects, CHB patients, and mice” (Antimicrob Agents Chemother, 2009)
# Tests used:
# [1] = system: Homo sapiens; test: Toxicity in chronic hepatitis B virus infected patient assessed as serum ALT level at 30 mg, po qd for 4 weeks by LC-MS analysis; assay type: organism-based; conditions: in vivo, 672 h
# [2] = system: Homo sapiens; test: Toxicity in chronic hepatitis B virus infected patient assessed as serum ALT level at 60 mg, po qd for 4 weeks by LC-MS analysis; assay type: organism-based; conditions: in vivo, 672 h
# [3] = system: Homo sapiens; test: Toxicity in chronic hepatitis B virus infected patient assessed as serum ALT level at 120 mg, po qd for 4 weeks by LC-MS analysis; assay type: organism-based; conditions: in vivo, 672 h
# [4] = system: Homo sapiens; test: Toxicity in chronic hepatitis B virus infected patient assessed as serum ALT level at 240 mg, po qd for 4 weeks by LC-MS analysis; assay type: organism-based; conditions: in vivo, 672 h
# [5] = system: Hepatitis B virus; test: Antiviral activity against hepatitis B virus infected in human assessed as log reduction in viral titer per ml of serum at 30 mg, po qd for 4 weeks; assay type: functional
# [6] = system: Hepatitis B virus; test: Antiviral activity against hepatitis B virus infected in human assessed as log reduction in viral titer per ml of serum at 240 mg, po qd for 4 weeks; assay type: functional
smiles,measurement,setting,value
CC(C)(C)C(=O)OCOP(=O)(COC1(Cn2cnc3cnc(N)nc32)CC1)OCOC(=O)C(C)(C)C [LB80380],Activity,[1],79.5 U/L
same,Activity,[2],68.7 U/L
same,Activity,[3],34.5 U/L
same,Activity,[4],27 U/L
same,FC,[5],3.02
same,FC,[6],3.8
